Laboratory results published in PMC3756936 (Journal of medicinal chemistry, 2013).
Where two headings read alike, the source gives them in different places. Values belong to the compound of their own block, whether it stands above or below them.

What was measured:
[1] = tested on: HEK293 cells; conditions: human
[2] = tested on: COS; conditions: African green monkey
[3] = tested on: CHO; conditions: Chinese hamster
[4] = Mouse liver microsomal stability; format: in vitro ADME; conditions: liver microsomes, 37 °C
[5] = molecular target: T1, CpIMPDH (Cryptosporidium parvum, UniProt Q8T6T2); test: biochemical; format: biochemical; conditions: for inhibition mechanism with respect to NAD+: best fit; for inhibition mechanism with respect to NAD+ / inhibition mechanism with respect to IMP: in words
T1 sequence (Q8T6T2 1-400): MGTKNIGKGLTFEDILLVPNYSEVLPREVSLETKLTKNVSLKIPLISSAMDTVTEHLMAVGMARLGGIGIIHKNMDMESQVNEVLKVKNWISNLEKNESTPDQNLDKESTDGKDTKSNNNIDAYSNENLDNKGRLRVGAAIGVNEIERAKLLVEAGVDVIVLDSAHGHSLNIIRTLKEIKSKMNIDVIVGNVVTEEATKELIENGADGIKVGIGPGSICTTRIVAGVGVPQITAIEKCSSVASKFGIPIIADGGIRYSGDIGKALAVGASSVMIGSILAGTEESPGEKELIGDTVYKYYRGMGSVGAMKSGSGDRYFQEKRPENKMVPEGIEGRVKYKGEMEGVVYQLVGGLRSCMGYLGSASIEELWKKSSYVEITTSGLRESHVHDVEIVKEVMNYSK

[6] = tested on: HeLa; conditions: human
[7] = tested on: Toxo/CpIMPDH (T. gondii strain that relies on CpIMPDH); test: microbe, parasite or virus in culture; format: cell-based, Toxoplasma gondii; conditions: for EC50: Toxoplasma gondii, read-out: EC50 Toxo/CpIMPDH

SMILES: C[C@H](Nc1cccc(Cl)c1Cl)C(=O)Nc1ccc2oc(-c3ccncc3)nc2c1 [15a, (S)-2-(2,3-dichlorophenylamino)-N-(2-(pyridine-4-yl)benzo[d]oxazol-5-yl) propionamide]
LD50 [1]: > 50 µM | LD50 [2]: > 50 µM | LD50 [3]: > 50 µM

half-life ([4]; t1/2 (min) + NADPH, + NADPH): ≤ 12 min | half-life ([4]; t1/2 (min) − NADPH, − NADPH): ≤ 12 min
SMILES: C[C@H](Oc1cccc(Cl)c1Cl)C(=O)Nc1ccc2nc(-c3ccncc3)oc2c1 [40a, (S)-2-(2,3-dichlorophenoxy)-N-(2-(pyridin-4-yl)benzo[d]oxazol-6-yl)propionamide]
LD50 [1]: > 50 µM | LD50 [2]: > 50 µM | LD50 [3]: > 50 µM

SMILES: CC(Oc1ccc(Cl)cc1Cl)C(=O)Nc1ccc2oc(-c3ccncc3)nc2c1 (stereo not drawn) [compound 1]
Ki ([5]; Kis (nM), Substrate IMP): 58 ± 5 nM | Ki ([5]; Kis (nM), Substrate NAD): 33 ± 8 nM | inhibition mechanism with respect to NAD+ [5]: competitive | inhibition mechanism with respect to IMP [5]: noncompetitive

SMILES: CC(Oc1ccccc1Cl)C(=O)Nc1ccc2oc(-c3ccncc3)nc2c1 (stereo not drawn) [compound 41, 2-(2-chlorophenoxy)-N-(2-(pyridine-4-yl)benzo[d]oxazol-5-yl)propionamide]
LD50 [6]: > 50 µM | LD50 [1]: ~ 12.5 μM | LD50 [2]: > 50 µM | LD50 [3]: > 50 µM

SMILES: COc1ccc(OC(C)C(=O)Nc2ccc3oc(-c4ccncc4)nc3c2)cc1 (stereo not drawn) [compound 44, 2-(4-methoxyphenoxy)-N-(2-(pyridine-4-yl)benzo[d]oxazol-5-yl)propionamide]
LD50 [1]: > 50 µM | LD50 [2]: > 50 µM | LD50 [3]: > 50 µM

SMILES: CC(Oc1cccc(Cl)c1Cl)C(=O)Nc1ccc2oc(-c3ccncc3)nc2c1 (stereo not drawn) [compound 46, 2-(2,3-dichlorophenoxy)-N-(2-(pyridine-4-yl)benzo[d]oxazol-5-yl)propionamide]
selectivity versus Toxo/WT [7]: > 30 fold | EC50 [7]: ≤ 250 nM | LD50 [1]: > 50 µM | LD50 [2]: > 50 µM | LD50 [3]: > 50 µM

SMILES: CC(Oc1cccc2ccccc12)C(=O)Nc1ccc2oc(-c3ccncc3)nc2c1 (stereo not drawn) [compound 48, 2-(naphthalene-1-yloxy)-N-(2-(pyridine-4-yl)benzo[d]oxazol-5-yl)propionamide]
selectivity versus Toxo/WT [7]: > 30 fold | EC50 [7]: ≤ 250 nM

half-life ([4]; t1/2 (min) + NADPH, + NADPH): ≤ 12 min | half-life ([4]; t1/2 (min) − NADPH, − NADPH): ≤ 12 min
SMILES: C[C@H](Oc1cccc(Cl)c1Cl)C(=O)Nc1ccc2oc(-c3ccncc3)nc2c1 [compound 55, (S)-2-(2,3-dichlorophenoxy)-N-(2-(pyridin-4-yl)benzo[d]oxazol-5-yl)propionamide]

SMILES: C[C@H](Oc1cccc([N+](=O)[O-])c1Cl)C(=O)Nc1ccc2oc(-c3ccncc3)nc2c1 [compound 57, (S)-2-(2-chloro-3-nitrophenoxy)-N-(2-(pyridine-4-yl)benzo[d]oxazol-5-yl)propionamide]
LD50 [1]: > 50 µM | LD50 [2]: > 50 µM | LD50 [3]: > 50 µM

half-life ([4]; t1/2 (min) + NADPH, + NADPH): ≤ 12 min | half-life ([4]; t1/2 (min) − NADPH, − NADPH): ≤ 12 min
SMILES: C[C@H](Oc1cccc(Cl)c1Cl)C(=O)Nc1ccc2oc(-c3cncs3)nc2c1 [compound 62, (S)-2-(2,3-dichlorophenoxy)-N-(2-(thiazol-5-yl)benzo[d]oxazol-5-yl)propionamide]

SMILES: C[C@H](Oc1cccc2ccccc12)C(=O)Nc1ccc2oc(-c3cncs3)nc2c1 [compound 63, (S)-2-(naphthalene-1-yloxy)-N-(2-(thiazol-5-yl)benzo[d]oxazol-5-yl)propionamide]
Ki ([5]; Kis (nM), Substrate IMP): 1.6 ± 0.7 nM | Ki ([5]; Kis (nM), Substrate NAD): 0.9 ± 0.3 nM | inhibition mechanism with respect to NAD+ [5]: competitive | inhibition mechanism with respect to IMP [5]: noncompetitive

SMILES: C[C@H](Oc1cccc(Cl)c1Cl)C(=O)Nc1cc(Cl)c2oc(-c3ccncc3)nc2c1 [compound 68, (S)-N-(7-chloro-2-(pyridin-4-yl)benzo[d]oxazol-5-yl)-2-(2,3-dichlorophenoxy)propionamide]
Ki [5]: 150 ± 30 nM | Ki ([5]; Kis (nM), Substrate IMP): 210 ± 10 nM | inhibition mechanism with respect to NAD+ [5]: competitive | inhibition mechanism with respect to IMP [5]: noncompetitive

SMILES: C[C@@H](C(=O)Nc1ccc2oc(-c3ccncc3)nc2c1)c1ccccc1 [compound 72, (R)-2-phenyl-N-(2-(pyridine-4-yl)benzo[d]oxazol-5-yl)propionamide]
Ki ([5]; Kis (nM), Substrate IMP): 100 ± 20 nM | Ki ([5]; Kis (nM), Substrate NAD): 40 ± 10 nM | inhibition mechanism with respect to NAD+ [5]: competitive | inhibition mechanism with respect to IMP [5]: noncompetitive
